Experimental data reported in PMC3742241, “Novel Hybrid Virtual Screening Protocol Based on Molecular Docking and Structure-Based Pharmacophore for Discovery of Methionyl-tRNA Synthetase Inhibitors as Antibacterial Agents” (International Journal of Molecular Sciences, 2013).
≈ marks a conversion by molar mass, not a printed value.

Key:
[1] = system: Methicillin-resistant Staphylococcus aureus ATCC 43300; test: In vitro MIC, broth microdilution, MRSA; format: cell-based; conditions: 5 × 10^5 CFU/mL, 16 h at 37 °C, read-out: MIC, Gram-positive bacteria, MRSA
Procedure: (§1) The 15 final hit compounds were purchased and screened for preliminary in vitro antibacterial activity against our five ATCC-bacterial strain panel (Staphylococcus aureus ATCC 29213, Methicillin-resistant Staphylococcus aureus ATCC 43300, E. coli ATCC 25922, Pseudomonas aeruginosa ATCC 27853 and Klebsiella pneumoniae ATCC 700603) by using the standard broth dilution method. […] All of the 15 final hit compounds were tested against HEK293 cell lines to avoid potential cytotoxicity of normal human cells. […] Further chemical optimization is being performed to better understand the key residues for activity and selectivity.
(§2) MICs were determined using a microdilution method with Muellere Hinton Broth (MHB) for Staphylococci and Lennox Broth (LB) for Enterococci, following the National Committee for Clinical Laboratory Standards (NCCLS) (now called the Clinical Laboratory Standards Institute [CLSI]). The stock solutions of the test compounds were diluted to give a two-fold series, with final chemical concentrations ranging from […].

[2] = system: Staphylococcus aureus ATCC 29213; test: In vitro MIC, broth microdilution, S. aureus; format: cell-based; conditions: ATCC29213, 5 × 10^5 CFU/mL, 16 h at 37 °C, read-out: MIC, Gram-positive bacteria, S. aureus
Procedure: as §1, §2

[3] = system: Escherichia coli ATCC 25922; test: In vitro MIC, broth microdilution, E. coli; format: cell-based; conditions: ATCC25922, 5 × 10^5 CFU/mL, 16 h at 37 °C, read-out: MIC, Gram-negative bacteria, E. coli
Procedure: as §1, §2

[4] = system: Klebsiella pneumoniae ATCC 700603; test: In vitro MIC, broth microdilution, K. pneumoniae; format: cell-based; conditions: ATCC700603, 5 × 10^5 CFU/mL, 16 h at 37 °C, read-out: MIC, Gram-negative bacteria, K. pneumoniae
Procedure: as §1, §2

[5] = system: Pseudomonas aeruginosa ATCC 27853; test: In vitro MIC, broth microdilution, P. aeruginosa; format: cell-based; conditions: ATCC27853, 5 × 10^5 CFU/mL, 16 h at 37 °C, read-out: MIC, Gram-negative bacteria, P. aeruginosa
Procedure: as §1, §2

[6] = In vitro cytotoxicity assay (MTT); format: cell-based, Human; conditions: human; HEK293 cells; 48 h; MTT
Procedure: as §1
(§3) Human Embryonic Kidney 293 cell line (HEK293) was acquired from ATCC. The cells were cultured in DMEM medium (Gibco-BRL, Invitrogen Co. Ltd., Carlsbad, CA, USA) supplemented with 10% (v/v) fetal bovine serum plus 100 μg/mL amikacin. The cells were maintained in a 37 °C humidified incubator with 5% CO2 atmosphere. Analysis of in vitro cytotoxicity was performed in the presence of compounds or blank solvent on cell lines seeded in 96-well plates at the density of 2 × 10^3 cells/well in serum-containing media. After 24 h incubation at 37 °C, the cells were treated with different concentrations of compounds along with a blank solvent. The cells were incubated in these conditions for 48 h. The cell viability was assessed with the 3-(4,5-dimethylthiazol-2-yl)-2,5-diphenyltetrazolium bromide (MTT) method, as previously described.

[7] = system: HEK293 cells; test: In vitro cytotoxicity assay (MTT); format: cell-based, Human
Procedure: as §1, §3

MIC [1] [µg/mL]	MIC [2] [µg/mL]	MIC [3] [µg/mL]	MIC [4] [µg/mL]	MIC [5] [µg/mL]	SMILES	IC50 at 48 h [6] [µM]	Cytotoxicity to HEK293 cells (in words) [7]
16 (≈ 44.6 µM)	8 (≈ 22.3 µM)	32 (≈ 89.3 µM)	16 (≈ 44.6 µM)	4 (≈ 11.2 µM)	CC1(C)Cc2c(ccc3ccccc23)C(NNC(=O)c2cccc(N)c2)=N1 [ZINC00729256]	> 20	non-cytotoxicity
64 (≈ 173 µM)	32 (≈ 86.6 µM)	32 (≈ 86.6 µM)	64 (≈ 173 µM)	16 (≈ 43.3 µM)	Cc1ccc2ccc([C@H](Nc3ccccn3)c3ccc(C)c(C)c3)c(O)c2n1 [ZINC02086896]	3.15	–
4 (≈ 8.38 µM)	4 (≈ 8.38 µM)	16 (≈ 33.5 µM)	64 (≈ 134 µM)	8 (≈ 16.8 µM)	CCc1ccc(NC(=O)C(=O)NCCN2CCN(C(=O)c3ccc(Cl)cc3Cl)CC2)cc1 [ZINC06843697]	> 20	non-cytotoxicity
32	32	32	64	16	CCCCCCCC[n+]1cccc(C(=O)N2CCNc3nc(NC(=O)C(C)C)[nH]c(=O)c32)c1 [ZINC08384332]	> 20	–
32 (≈ 76.8 µM)	16 (≈ 38.4 µM)	64 (≈ 154 µM)	64 (≈ 154 µM)	32 (≈ 76.8 µM)	Cc1ccc2c(c1)c1c3n2CCN(CC(=O)CNNC(=O)c2ccccc2)C3CCC1 (centres unmarked) [ZINC08430843]	> 20	–
32 (≈ 72.1 µM)	32 (≈ 72.1 µM)	64 (≈ 144 µM)	64 (≈ 144 µM)	64 (≈ 144 µM)	CC1CCCc2sc3nc(SCC(=O)NC(=O)Nc4ccccc4)n(N)c(=O)c3c21 (centres unmarked) [ZINC19797059]	> 20	–
64 (≈ 144 µM)	32 (≈ 72.1 µM)	64 (≈ 144 µM)	64 (≈ 144 µM)	16 (≈ 36.1 µM)	CC1CCCc2sc3c(=O)n(N)c(SCC(=O)NC(=O)Nc4ccccc4)nc3c21 (centres unmarked) [ZINC19797060]	> 20	–
64 (≈ 142 µM)	32 (≈ 71.2 µM)	64 (≈ 142 µM)	64 (≈ 142 µM)	32 (≈ 71.2 µM)	COc1cc(CNCCc2ccc(S(N)(=O)=O)cc2)ccc1OCC(=O)NC(C)(C)C [ZINC19922703]	> 20	–

The remaining lines, values behind:

SMILES	MIC [1] [µg/mL]	MIC [2] [µg/mL]	MIC [3] [µg/mL]	MIC [4] [µg/mL]	MIC [5] [µg/mL]	IC50 at 48 h [6] [µM]	Cytotoxicity to HEK293 cells (in words) [7]
CNC(=O)NC(=O)CSc1nc2sc(-c3ccccc3)cc2c(=O)n1N [ZINC02181060]	16 (≈ 41.1 µM)	4 (≈ 10.3 µM)	8 (≈ 20.5 µM)	32 (≈ 82.2 µM)	16 (≈ 41.1 µM)	15.4	–
CCCC[n+]1c(N)c(C(=O)NCc2ccc(C)cc2)cc2c(=O)n3cccc(C)c3nc21 [ZINC02424508]	32	16	16	64	64	> 20	–
Cc1sc(NC(=O)c2ccco2)c(C(Nc2ccccn2)c2ccccc2)c1C (centres unmarked) [ZINC02709613]	64 (≈ 159 µM)	64 (≈ 159 µM)	64 (≈ 159 µM)	64 (≈ 159 µM)	16 (≈ 39.7 µM)	> 20	–
COc1ccc(C(=O)N2CCN(CCNC(=O)C(=O)Nc3ccccc3)CC2)cc1 [ZINC04380079]	64 (≈ 156 µM)	32 (≈ 78 µM)	64 (≈ 156 µM)	64 (≈ 156 µM)	64 (≈ 156 µM)	6.84	–
O=C(NCCN1CCN(C(=O)c2ccc(Cl)cc2Cl)CC1)C(=O)Nc1ccc(Br)cc1 [ZINC08451958]	32 (≈ 60.6 µM)	32 (≈ 60.6 µM)	64 (≈ 121 µM)	64 (≈ 121 µM)	64 (≈ 121 µM)	> 20	–
Cc1ccccc1C(=O)N1CCN(CCNC(=O)C(=O)Nc2ccc(Br)cc2)CC1 [ZINC08452043]	16 (≈ 33.8 µM)	8 (≈ 16.9 µM)	16 (≈ 33.8 µM)	32 (≈ 67.6 µM)	8 (≈ 16.9 µM)	10.2	–
CN(C)CCCNC(=O)c1ccccc1NC(=O)c1ccc(-c2ccccc2)cc1 [ZINC10312776]	64 (≈ 159 µM)	64 (≈ 159 µM)	64 (≈ 159 µM)	32 (≈ 79.7 µM)	16 (≈ 39.8 µM)	> 20	–
